# Like-named read-outs stand apart in the source and are kept apart here.
# Legend:
# [1] = biological target: T1, GPR81 (Rattus norvegicus, UniProt B9UM24); assay: FRET nano-sensor (Epac1-camps / AKAR2) measurement of cytosolic cAMP in single cultured astrocytes, GPR81 ligands; type: cell-based; conditions: for responsiveness of cells (cAMP): compared with the high affinity molecule 3cl5hi; for n decrease (cells with cAMP decrease): number of astrocytes responding with cAMP decrease; for n increase (cells with cAMP increase): number of astrocytes responding with cAMP increase; for n unresponsive (cells): number of unresponsive astrocytes; for % decrease (cells with cAMP decrease) / % increase (cells with cAMP increase) / % unresponsive (cells): share of all astrocytes tested
# T1 construct: endogenous in cells; host or cells: cultured primary rat astrocytes transfected only with the cAMP sensors Epac1-camps or AKAR2
# T1 sequence (B9UM24 1-351): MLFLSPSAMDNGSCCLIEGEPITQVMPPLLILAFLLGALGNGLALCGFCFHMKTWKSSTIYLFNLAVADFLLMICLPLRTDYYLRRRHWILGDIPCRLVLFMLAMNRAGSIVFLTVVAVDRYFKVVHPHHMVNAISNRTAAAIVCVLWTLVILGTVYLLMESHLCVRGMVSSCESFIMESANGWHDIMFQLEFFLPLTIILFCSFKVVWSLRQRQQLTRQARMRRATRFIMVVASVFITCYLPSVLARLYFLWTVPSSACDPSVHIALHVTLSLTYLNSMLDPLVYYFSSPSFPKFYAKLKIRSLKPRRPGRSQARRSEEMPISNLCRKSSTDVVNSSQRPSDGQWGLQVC
# Source text: (§1) As described in the previous European Patent Application No. 13 173 446, the cAMP level may, be determined by fluorescence nano-sensors in the astrocyte. In particular, the cAMP level may be determined by expressing the plasmid for FRET construct Epac1-camps or AKAR2. FRET signal is reported as the ratio of YFP to CFP fluorescence signal. The change in FRET signals reflects change in [cAMP]i. The inventions comprises of using MD and cAMP measurements.
# (§2) As described in the previous European Patent Application No. 13 173 446, the cAMP level may, for instance, be determined by fluorescence nano-sensors in the astrocyte. In particular, the cAMP level may be determined by expressing the plasmid for FRET construct Epac1-camps or AKAR2. FRET construct are examined with immersion objective for fluorescent light and confocal microscope or other fluorescent microscope. Cells were excited at 458 nm or other suitable excitation wavelength of light and images are acquired every time interval. Emission spectra are collected from spectral detector or other suitable wavelength of light. Two-channel (CFP and YFP) images are generated from light detector. YFP and CFP fluorescence intensities are quantified within a region of interest selected for individual cell expressing Epac1-camps or AKAR2 using software. FRET signal is reported as the ratio of YFP to CFP fluorescence signal after subtracting the background fluorescence from both YFP and CFP signals. The change in FRET signals reflects change in [cAMP]i.
# (§3) Cultured astrocytes, e.g. isolated as previously described by Schwartz & Wilson (Glia. 1992; 5(1):75-80) or any other cell type isolated from animal tissues or clonal cell lines derived from human or animal sources are seeded onto coverslips and maintained in an adequate cell cultured medium. All chemicals were from Sigma Aldrich (St. Louis, Mo., USA) unless otherwise noted.
# (§4) Astrocytes expressing Epac1-camps or AKAR2 FRET construct were examined with a Plan NeoFluoar 40×/1.3 Oil DIC immersion objective (Carl Zeiss, Jena, Germany) and 2-fold zoom factor using Zeiss LSM510 META confocal microscope (Carl Zeiss, Jena, Germany). Cells were excited at 458 nm and images (512×512) were acquired every 3.5 s or 7 s using Lambda stack acquisition. Emission spectra were collected from META detector in eight channels (lambda stack) ranging from 470 nm to 545 nm, each with a 10.7-nm width. Two-channel (CFP and YFP) images were generated from lambda stacks by analytical software “Extract channels”. Channels with emission spectra 470- and 481-nm and emission spectra 513-, 524-, and 534-nm were extracted to CFP channel and YFP channel, respectively. YFP and CFP fluorescence intensities were quantified within a region of interest selected for individual cell expressing Epac1-camps or AKAR2 using LSM 510 META software. In the graphs, FRET signal is reported as the ratio of YFP to CFP fluorescence signal after subtracting the background fluorescence from both YFP and CFP signals using Sigma Plot.
# (§5) The values of FRET signals were normalized (set to 1.0) at the onset of the experiments and averaged. The decrease in FRET signals in Epac1-camps experiments reflects an increase in [cAMP]i and the increase in FRET signals in AKAR2 experiments reflects increase in [cAMP]i.
# (§6) Initially, astrocytes were kept in standard extracellular solution (10 mM Hepes/NaOH, pH 7.2, 10 mM D-glucose, 131.8 mM NaCl, 1.8 mM CaCl2, 2 mM MgCl2, and 5 mM KCl) and then treated with various reagents following a 100 s baseline.
# [2] = biological target: human HCAR1 (GPR81) (Homo sapiens, UniProt Q9BXC0); conditions: cited from earlier work; for EC50 (in words): Dvorak et al. 2012, qualitative statement; for EC50: receptor activation, value from Dvorak et al. 2012; for agonist activity at GPR81: Dvorak et al. 2012
# [3] = biological target: T1, GPR81; conditions: from European Patent Application No. 13 173 446, cited from earlier work
# [4] = biological target: human HCA1 (Homo sapiens, UniProt Q9BXC0); conditions: compared versus HCA2, Liu et al. 2012; cited from earlier work
# [5] = tested on: Adrener.; assay: FRET nano-sensor measurement of cytosolic cAMP in single cultured astrocytes, adrenergic stimulus; type: cell-based, rat
# Source text: as §1, §2, §3, §4, §5, §6
# Sequence of human HCAR1 (GPR81) (Q9BXC0 whole entry): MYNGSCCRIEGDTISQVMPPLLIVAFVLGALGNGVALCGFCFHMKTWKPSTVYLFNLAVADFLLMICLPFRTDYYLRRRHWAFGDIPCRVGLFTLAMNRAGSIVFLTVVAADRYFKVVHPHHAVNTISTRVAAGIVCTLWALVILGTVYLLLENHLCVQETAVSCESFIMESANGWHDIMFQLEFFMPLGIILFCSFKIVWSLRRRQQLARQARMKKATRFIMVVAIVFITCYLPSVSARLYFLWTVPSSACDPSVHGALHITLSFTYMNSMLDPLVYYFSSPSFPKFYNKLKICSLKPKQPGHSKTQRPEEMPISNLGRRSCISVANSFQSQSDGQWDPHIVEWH
# Sequence of human HCA1 (Q9BXC0 whole entry): as above
Compound,n decrease (cells with cAMP decrease) [1],n increase (cells with cAMP increase) [1],n unresponsive (cells) [1],% decrease (cells with cAMP decrease) [1],% increase (cells with cAMP increase) [1],% unresponsive (cells) [1] [%],EC50 (in words) [2],further results
"COc1cc(O)cc(C(=O)O)c1 [metoxi, 3-methoxy-5-hydroxybenzoic acid]",3,34,15,6%,(65%),29,relatively high EC50,responsiveness of cells (cAMP) [1]: responded much better; EC50 [2]: > 1000 µM
"O=C(O)c1cc(O)cc(Cl)c1 [Ligand 3cl5hi, 3-chloro-5-hydroxybenzoic acid, reference compound]",0 (0%),21,14,0 (0%),(60%),40,relatively low EC50,"intracellular cAMP levels in astrocytes (FRET ratio YFP/CFP) ([3]; 500 μM 3-Cl-5-HBA, AKAR2 sensor, FIG. 9d): increases intracellular cAMP levels; agonist activity at GPR81 [2]: agonists"
Lactic acid/lactate [lakta],–,–,–,–,–,–,–,"intracellular cAMP levels in astrocytes (FRET ratio YFP/CFP) ([3]; 20 mM lactate, Epac1-camps and AKAR2 sensors, FIG. 9b-c): increases intracellular cAMP levels"
"O=C(O)c1cc(O)cc(O)c1 [oh, 3,5-dihydroxybenzoic acid]",–,–,–,–,–,–,–,selectivity for human HCA1 [4]: selective agonist
"O=C(O)c1cc(O)cc(F)c1 [Ligand 3f5hi, 3-fluoro-5-hydroxybenzoic acid, reference compound]",–,–,–,–,–,–,relatively low EC50,agonist activity at GPR81 [2]: agonists
"CC(C)(C)c1cc(O)cc(C(=O)O)c1 [but, 3-tertbutyl-5-hydroxybenzoic acid]",4,29,6,10%,(75%),15,relatively high EC50,responsiveness of cells (cAMP) [1]: responded much better; EC50 [2]: > 1000 µM
NC[C@H](O)c1ccc(O)c(O)c1 [Norepinephrine],–,–,–,–,–,–,–,n decrease (cells with cAMP decrease) ([5]; number of astrocytes responding with cAMP decrease): 0 (0%); n increase (cells with cAMP increase) ([5]; number of astrocytes responding with cAMP increase): 11; n unresponsive (cells) ([5]; number of unresponsive astrocytes): 3; % decrease (cells with cAMP decrease) ([5]; share of all astrocytes tested): 0 (0%); % increase (cells with cAMP increase) ([5]; share of all astrocytes tested): (79%); % unresponsive (cells) ([5]; share of all astrocytes tested): 21%
"O=C(O)c1cc(O)cc(-c2ccccc2)c1 [ph, 3-phenyl-5-hydroxybenzoic acid]",–,–,–,–,–,–,relatively high EC50,–
